In patent US20240101589A1, “INHIBITORS OF METTL3” (Strom Therapeutics Limited, priority 2020, published 2024) one finds IC50 data, which are given here for 17 compounds.

The target of one assay is METTL3/14 (Homo sapiens (Human), UniProt Q86U44). Description: METTL3/14 methyltransferase assay (RapidFire mass spectrometry, RFMS). In kind it is biochemical. To be noted: 5 nM METTL3/14, 0.2 μM RNA substrate, 0.5 μM SAM, 60 minutes at room temperature. How it is done: The enzymatic assay was established to determine IC50 values for inhibition of RNA methyltransferase activity. The enzyme used was full-length his-tagged METTL3 co-expressed with full length FLAG-tagged METTL14 in a baculovirus expression system. Enzymatic reactions were performed at room temperature in 384-well plates using a final reaction volume of 20 μL containing 20 mM TrisCl pH 7.6, 1 mM DTT, 0.01% Tween-20. 5 nM final concentration of METTL3/14 was pre-incubated with various compound concentrations for 10 minutes, followed by addition of 0.2 μM final concentration synthetic RNA substrate (5′P-[…]-3′) and 0.5 μM final concentration S-adenosyl-methionine (SAM). The reaction was incubated for a further 60 minutes at room temperature, and then quenched by the addition of 40 μL 7.5% TCA with two internal product standards (D4-SAH and 13C10-SAH). After termination, plates were sealed, centrifuged and stored at 4° C. until analysis.
RNA methyltransferase activity was measured label free using the RapidFire™ mass spectrometry (RF/MS) platform. Stopped and stable assay plates were analyzed on the Agilent RF300 integrated autosampler/solid-phase extraction (SPE) system coupled to an ABSciex 4000 mass spectrometer for the generation of the product S-adenosyl homocysteine (SAH) and normalized to the ratio of signal of the two internal product standards, respectively. Solvent A was water containing 0.1% (v/v) TCA. Solvent B was acetonitrile/0.1% ammonium acetate (8:2, v/v). More specifically, plates were centrifuged at 4350 rpm for 10 min, samples were aspirated under vacuum for 600 ms, then loaded onto a C18 solid-phase extraction cartridge and washed for 3 s with solvent A at a flow rate of 1.5 mL/min. Retained product and internal standards were eluted with solvent B at a flow rate of 1 mL/min for 3 s and finally the cartridge was re-equilibrated with solvent A for 500 ms. The mass transition for the product (SAH) was 384.9/135.9 Da. Transitions of the two internal product standards (IS1: D4-SAH and IS2: 13C10-SAH) were 389.1/135.8 Da and 395.0/134.2 Da, respectively. Ratios of SAH/IS1 and SAH/IS2 were used for normalization of matrix effects. IC50 values were calculated based on dilution series of individual compounds. Potency of a compound was measured at varied inhibitor concentrations and normalized to control wells without RNA substrate and without inhibition (DMSO only).

The next assay concerns KASUMI-1 cells. Description: Kasumi cell proliferation CTG. The assay is classed as cell-based. The note with it: treated for 120 hours, CellTiter-Glo. The method, then:
Cell culture: KASUMI-1 cells (ACC20, Leibniz-Institut DSMZ Deutsche Sammlung von Mikroorganismen und Zellkulturen GmbH) were grown in RPMI 1640 (31870-025, Gibco) supplemented with 20% fetal bovine serum (F1524, Gibco), 1 mM sodium pyruvate (11360-039, Gibco) and 2 mM Glutamax (35050-038, Gibco) in a 5% CO2 humidified incubator at 37° C.
Cell treatment and cell growth assessment: KASUMI-1 cells were seeded in ultra-low attachment 384-well culture plate (MS-9384WZ, SBio) at a final concentration of 250 000 cells/ml (35 μL/well) and treated for 120 hours with compounds inhibiting the METTL3/14 activity (10 serial semi-log dilutions, 30 μM as top concentration). Upon treatment, Kasumi1 cells were incubated for 10 min at RT with the CellTiter-Glo reagent (G7571, Promega). Measurement of the luminescence signal was performed on a microplate reader (Ensight, PerkinElmer).
A general note: Cellular ATP, detected with luciferase, serves as a proxy for viable cell number.

The subject of a further assay is Caov-3 cells. Description: Caov3 cell proliferation CTG. To be noted: Homo sapiens, treated for 120 hours, CellTiter-Glo. The assay is classed as cell-based. The method, then:
Cell treatment and cell growth assessment: 18 hours post-seeding in white 384-Viewplate (6007480, PerkinElmer) at 1500 cells/well, Caov3 cells were treated for 120 hours with compounds inhibiting the METTL3/14 activity (10 serial semi-log dilutions, 30 μM as top concentration). Upon treatment, Coav-3 cells were incubated for 10 min at RT with the CellTiter-Glo reagent (G7571, Promega). Measurement of the luminescence signal was performed on a microplate reader (Ensight, PerkinElmer).

For orientation: pIC50 means the negative decadic logarithm of the IC50, by convention in mol/L. Read a high pIC50 as a small IC50.

SMILES strings stand for the structures. pIC50: −log10 of the molar value.

Sequence of METTL3/14 (Q86U44 whole entry): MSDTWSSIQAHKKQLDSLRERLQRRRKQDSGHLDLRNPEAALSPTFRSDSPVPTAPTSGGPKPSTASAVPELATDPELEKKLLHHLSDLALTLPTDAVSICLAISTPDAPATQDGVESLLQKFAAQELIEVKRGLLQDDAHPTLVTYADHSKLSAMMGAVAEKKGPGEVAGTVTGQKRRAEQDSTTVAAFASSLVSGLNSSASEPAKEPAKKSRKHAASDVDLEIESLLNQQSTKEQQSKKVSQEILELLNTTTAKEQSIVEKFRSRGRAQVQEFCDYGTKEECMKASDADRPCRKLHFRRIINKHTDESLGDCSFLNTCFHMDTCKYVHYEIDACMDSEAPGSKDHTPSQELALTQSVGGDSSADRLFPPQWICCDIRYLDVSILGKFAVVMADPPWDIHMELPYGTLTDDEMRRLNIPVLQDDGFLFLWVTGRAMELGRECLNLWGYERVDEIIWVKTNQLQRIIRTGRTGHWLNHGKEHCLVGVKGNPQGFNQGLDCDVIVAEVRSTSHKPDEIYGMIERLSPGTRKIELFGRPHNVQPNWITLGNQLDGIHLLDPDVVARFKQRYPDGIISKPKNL
Sequence of METTL3/14 (Q9HCE5 whole entry partner): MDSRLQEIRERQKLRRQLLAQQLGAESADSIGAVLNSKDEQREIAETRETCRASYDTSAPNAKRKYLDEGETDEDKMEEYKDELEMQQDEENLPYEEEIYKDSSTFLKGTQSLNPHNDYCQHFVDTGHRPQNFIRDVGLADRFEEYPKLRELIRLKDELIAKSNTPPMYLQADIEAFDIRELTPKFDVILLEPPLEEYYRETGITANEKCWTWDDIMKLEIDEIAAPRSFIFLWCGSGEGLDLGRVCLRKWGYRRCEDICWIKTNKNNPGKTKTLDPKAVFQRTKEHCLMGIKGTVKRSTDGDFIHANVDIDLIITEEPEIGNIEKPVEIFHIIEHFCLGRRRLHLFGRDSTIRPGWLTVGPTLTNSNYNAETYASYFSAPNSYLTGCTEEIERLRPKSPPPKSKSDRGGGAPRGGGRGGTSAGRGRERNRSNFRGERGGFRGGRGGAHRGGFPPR

Consider `Nc1ncnc2c1c(Br)cn2[C@@H]1C[C@H](c2ccc3[nH]c(CNCC45CC(F)(C4)C5)cc3c2)[C@@H](O)[C@H]1O` [Example 31, (1R,2S,3R,5R)-3-{4-amino-5-bromo-7H-pyrrolo[2,3-d]pyrimidin-7-yl}-5-(2-{[{{3-fluorobicyclo[1.1.1]pentan-1-yl}methyl)amino]methyl}-1H-indol-5-yl)cyclopentane-1,2-diol], for which the pIC50 against METTL3/14 is 8.08; with KASUMI-1 cells (Homo sapiens, Kasumi 1, 120 h), 5.71; in the assay on Caov-3 cells, 5.58.

On to `Nc1ncnc2c1c(Br)cn2[C@@H]1C[C@H](c2ccc(CCNCC34CC(F)(C3)C4)cc2)[C@@H](O)[C@H]1O` [Example 12, (1R,2S,3R,5R)-3-{4-amino-5-bromo-7H-pyrrolo[2,3-d]pyrimidin-7-yl}-5-(4-{2-[({3-fluorobicyclo[1.1.1]pentan-1-yl}methyl)amino]ethyl}phenyl)cyclopentane-1,2-diol], for which the pIC50 at METTL3/14 was 7.33; in the assay on KASUMI-1 cells (Homo sapiens, Kasumi 1, 120 h), 5.31; with Caov-3 cells, 5.08.

Regarding `Nc1ncnc2c1c(Br)cn2[C@@H]1O[C@H](CC/C=C/CNCc2ccccc2)[C@@H](O)[C@H]1O` [Example 9, (2R,3R,4S,5R)-2-(4-amino-5-bromo-7H-pyrrolo[2,3-d]pyrimidin-7-yl)-5-((E)-5-(benzylamino)pent-3-en-1-yl)tetrahydrofuran-3,4-diol], the pIC50 is 6.91 at METTL3/14; 5.34 with KASUMI-1 cells (Homo sapiens, Kasumi 1, 120 h); 5.24 with Caov-3 cells.

Consider `Nc1ncnc2c1c(Br)cn2[C@@H]1O[C@H](/C=C/CCCNCC2CCC2)[C@@H](O)[C@H]1O` [Example 2, (2R,3R,4S,5R)-2-{4-amino-5-bromo-7H-pyrrolo[2,3-d]pyrimidin-7-yl}-5-[(1E)-5-[(cyclobutylmethyl)amino]pent-1-en-1-yl]oxolane-3,4-diol], for which the pIC50 at METTL3/14 was 7.37; with KASUMI-1 cells (Homo sapiens, Kasumi 1, 120 h), 5.14; in the assay on Caov-3 cells, 5.42.

On to `Nc1ncnc2c1c(Br)cn2[C@@H]1C[C@H](c2ccc(CN3CCC4(CCC4)C3)cc2)[C@@H](O)[C@H]1O` [Example 35, (1R,2S,3R,5R)-3-{4-amino-5-bromo-7H-pyrrolo[2,3-d]pyrimidin-7-yl}-5-[4-({6-azaspiro[3.4]octan-6-yl}methyl)phenyl]cyclopentane-1,2-diol], for which the pIC50 at METTL3/14 is 7.20; in the assay with KASUMI-1 cells (Homo sapiens, Kasumi 1, 120 h), 5.38; with Caov-3 cells it was 5.34.

`Nc1ncnc2c1c(Br)cn2[C@@H]1C[C@H](c2cccc(CCNCC34CC(F)(C3)C4)c2)[C@@H](O)[C@H]1O` [Example 37, (1R,2S,3R,5R)-3-{4-amino-5-bromo-7H-pyrrolo[2,3-d]pyrimidin-7-yl}-5-(3-{2-[{{3-fluorobicyclo[1.1.1]pentan-1-yl}methyl)amino]ethyl}phenyl)cyclopentane-1,2-diol]: the pIC50 at METTL3/14 was 6.93; with KASUMI-1 cells (Homo sapiens, Kasumi 1, 120 h) it was 5.67; in the assay on Caov-3 cells, 5.49.

Take `Nc1ncnc2c1c(F)cn2[C@@H]1C[C@H](c2ccc3cc(CNCC45CC(F)(C4)C5)[nH]c3c2)[C@@H](O)[C@H]1O` [Example 29, (1R,2S,3R,5R)-3-{4-amino-5-fluoro-7H-pyrrolo[2,3-d]pyrimidin-7-yl}-5-(2-{[{{3-fluorobicyclo[1.1.1]pentan-1-yl}methyl)amino]methyl}-1H-indol-6-yl)cyclopentane-1,2-diol]: the pIC50 was 8.21 at METTL3/14; 5.54 in the assay on KASUMI-1 cells (Homo sapiens, Kasumi 1, 120 h); 5.81 with Caov-3 cells.

Turning to `Nc1ncnc2c1c(Br)cn2[C@@H]1C[C@H](c2ccc3cc(CN4CCC5(CCC5)C4)[nH]c3c2)[C@@H](O)[C@H]1O` [Example 32, (1R,2S,3R,5R)-3-{4-amino-5-bromo-7H-pyrrolo[2,3-d]pyrimidin-7-yl}-5-[2-({6-azaspiro[3.4]octan-6-yl}methyl)-1H-indol-6-yl]cyclopentane-1,2-diol], the pIC50 was 8.21 at METTL3/14; 5.91 in the assay with KASUMI-1 cells (Homo sapiens, Kasumi 1, 120 h); 6.26 with Caov-3 cells.

Consider `Nc1ncnc2c1c(Br)cn2[C@@H]1C[C@H](c2cccc(CNCC34CC(F)(C3)C4)c2)[C@@H](O)[C@H]1O` [Example 39, (1R,2S,3R,5R)-3-{4-amino-5-bromo-7H-pyrrolo[2,3-d]pyrimidin-7-yl}-5-(3-{[{{3-fluorobicyclo[1.1.1]pentan-1-yl}methyl)amino]methyl}phenyl)cyclopentane-1,2-diol], for which the pIC50 against METTL3/14 was 5.52; in the assay with KASUMI-1 cells (Homo sapiens, Kasumi 1, 120 h), 5.62; in the assay with Caov-3 cells, 5.33.

On to `Nc1ncnc2c1c(Br)cn2[C@H]1C[C@H](O)[C@@H](/C=C/CCCNCC23CC(F)(C2)C3)O1` [Example 22, (2R,3S,5R)-5-(4-amino-5-bromo-pyrrolo[2,3-d]pyrimidin-7-yl)-2-[(E)-5-[(3-fluoro-1-bicyclo[1.1.1]pentanyl)methylamino]pent-1-enyl]tetrahydrofuran-3-ol], for which the pIC50 at METTL3/14 was 7.89; with KASUMI-1 cells (Homo sapiens, Kasumi 1, 120 h), 5.37; in the assay with Caov-3 cells it was 5.54.

Turning to `Nc1ncnc2c1c(Br)cn2[C@@H]1C[C@H](c2cccc(CN3CCC4(CCC4)C3)c2)[C@@H](O)[C@H]1O` [Example 38, (1R,2S,3R,5R)-3-{4-amino-5-bromo-7H-pyrrolo[2,3-d]pyrimidin-7-yl}-5-[3-({6-azaspiro[3.4]octan-6-yl}methyl)phenyl]cyclopentane-1,2-diol], the pIC50 on METTL3/14 is 5.58; in the assay with KASUMI-1 cells (Homo sapiens, Kasumi 1, 120 h) it was 5.53; in the assay with Caov-3 cells, 5.17.

With `Nc1ncnc2c1c(Br)cn2[C@@H]1O[C@H](/C=C/CCCNCc2ccccc2)[C@@H](O)[C@H]1O` [Example 5, (2R,3R,4S,5R)-2-{4-amino-5-bromo-7H-pyrrolo[2,3-d]pyrimidin-7-yl}-5-[(1E)-5-(benzylamino)pent-1-en-1-yl]oxolane-3,4-diol], the pIC50 was 6.71 against METTL3/14, 6.44 in the assay with KASUMI-1 cells and 6.48 in the assay with Caov-3 cells.

On to `Nc1ncnc2c1c(Br)cn2[C@@H]1C[C@H](c2ccc(CNCC3CCC3)cc2)[C@@H](O)[C@H]1O` [Example 10, (1R,2S,3R,5R)-3-(4-amino-5-bromo-7H-pyrrolo[2,3-d]pyrimidin-7-yl)-5-(4-(((cyclobutylmethyl)amino)methyl)phenyl)cyclopentane-1,2-diol], for which the pIC50 was 6.82 on METTL3/14; 5.36 in the assay with KASUMI-1 cells (Homo sapiens, Kasumi 1, 120 h); 5.19 with Caov-3 cells.

In the case of `Nc1ncnc2c1c(Br)cn2[C@@H]1O[C@H](/C=C/CCCN2CCC3(CCC3)C2)[C@@H](O)[C@H]1O` [Example 21], the pIC50 against METTL3/14 was 7.62; with KASUMI-1 cells (Homo sapiens, Kasumi 1, 120 h), 5.31; with Caov-3 cells, 5.34.

`Nc1ncnc2c1c(-c1cc[nH]n1)cn2[C@@H]1O[C@H](/C=C/CCCNCC23CC(F)(C2)C3)[C@@H](O)[C@H]1O` [Example 20, (2R,3R,4S,5R)-2-[4-amino-5-(1H-pyrazol-3-yl)-7H-pyrrolo[2,3-d]pyrimidin-7-yl]-5-[(1E)-5-[({3-fluorobicyclo[1.1.1]pentan-1-yl}methyl)amino]pent-1-en-1-yl]oxolane-3,4-diol]: the pIC50 at METTL3/14 is 8.21; with Caov-3 cells it was 5.77.

Consider `Nc1ncnc2c1c(Br)cn2[C@@H]1C[C@H](c2ccc3cc(CNCC45CC(F)(C4)C5)[nH]c3c2)[C@@H](O)[C@H]1O` [Example 11, (1R,2S,3R,5R)-3-{4-amino-5-bromo-7H-pyrrolo[2,3-d]pyrimidin-7-yl}-5-(2-{[({3-fluorobicyclo[1.1.1]pentan-1-yl}methyl)amino]methyl}-1H-indol-6-yl)cyclopentane-1,2-diol], for which the pIC50 in the assay with KASUMI-1 cells (Homo sapiens, Kasumi 1, 120 h) is 6.02; in the assay on Caov-3 cells it was 6.60.

Turning to `Nc1ncnc2c1c(Br)cn2[C@@H]1O[C@H](/C=C/CCCNCC23CC(F)(C2)C3)[C@@H](O)[C@H]1O` [Example 6], the pIC50 in the assay with KASUMI-1 cells (Homo sapiens, Kasumi 1, 120 h) was 5.80; with Caov-3 cells, 6.40.
